pKi: −log10 of the molar value.
target: T1, β-catenin/BCL9 PPI (Homo sapiens, UniProt P35222); test: AlphaScreen competitive inhibition assay of the β-catenin/BCL9 PPI; type: binding; details: Table 1, inhibitors 1-14; read-out: Ki
T1 construct: Full-length β-catenin (residues 1-781) were cloned into a pET-28b vector; made in house; host or cells: E. coli BL21 DE3 (β-catenin); BCL9 peptide synthesized by InnoPep Inc
T1 sequence (P35222 1-781): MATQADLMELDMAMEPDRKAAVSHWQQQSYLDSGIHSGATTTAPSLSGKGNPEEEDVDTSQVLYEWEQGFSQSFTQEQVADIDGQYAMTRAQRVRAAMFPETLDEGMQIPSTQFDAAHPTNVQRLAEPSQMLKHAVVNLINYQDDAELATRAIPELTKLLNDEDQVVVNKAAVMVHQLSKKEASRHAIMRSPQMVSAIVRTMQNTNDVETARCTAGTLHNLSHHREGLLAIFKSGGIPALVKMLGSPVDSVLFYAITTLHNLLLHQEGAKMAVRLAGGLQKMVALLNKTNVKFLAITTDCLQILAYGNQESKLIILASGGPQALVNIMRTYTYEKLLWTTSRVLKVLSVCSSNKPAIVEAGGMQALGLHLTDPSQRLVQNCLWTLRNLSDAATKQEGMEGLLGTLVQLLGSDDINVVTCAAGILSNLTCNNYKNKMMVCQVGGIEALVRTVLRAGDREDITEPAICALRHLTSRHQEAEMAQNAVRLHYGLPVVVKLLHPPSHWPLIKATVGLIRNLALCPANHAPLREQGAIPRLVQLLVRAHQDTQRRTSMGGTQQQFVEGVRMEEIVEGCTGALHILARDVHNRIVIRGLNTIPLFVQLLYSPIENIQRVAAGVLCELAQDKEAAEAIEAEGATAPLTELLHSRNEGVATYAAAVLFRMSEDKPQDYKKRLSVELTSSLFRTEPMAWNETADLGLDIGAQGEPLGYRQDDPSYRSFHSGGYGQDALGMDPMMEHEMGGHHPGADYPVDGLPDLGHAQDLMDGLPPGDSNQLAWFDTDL
Protocol: AlphaScreen Assays of β-Catenin and BCL9 Interaction. Experiments were performed in white opaque 384-well plates from PerkinElmer (Waltham, Mass.), and the samples were read on a Synergy 2 plate reader (Biotek, Winooski, Vt.) with excitation at 680 nm and emission at 570 nm. The standard AlphaScreen protocol was used with a sensitivity setting of 200. All dilutions were made in 1× assay buffer containing 25 mM Hepes (pH 7.4), 100 mM NaCl, 0.01% Triton X-100 and 0.1% BSA to minimize nonspecific interactions.
For the β-catenin/BCL9 assay, 5 nM biotinylated BCL9 and 40 nM His6-tagged β-catenin were incubated in assay buffer at 4° C. for 30 min. For the β-catenin/E-cadherin assay, 10 nM biotinylated human E-cadherin, and 40 nM His6-tagged human β-catenin were added and incubated in assay buffer at 4° C. for 30 min. Different concentrations of the tested inhibitor were added and incubated in 20 μL assay buffer at 4° C. for another 1 h. All of the assay plates were covered and gently mixed on an orbital shaker. The donor and acceptor beads were then added to the plates to a final concentration of 10 μg/mL in […]. The mixture was incubated for 1 h at 4° C. before detection. The IC50 value was determined by nonlinear least-square analysis of GraphPad Prism 5.0. […] All of the experiments were performed in triplicate and carried out in the presence of 1% DMSO for small-molecule inhibitors. Each compound was assayed at least by two independent experiments. The results were expressed as mean±standard deviation. The inhibitor selectivity for β-catenin/BCL9 over β-catenin/E-canderin interactions was defined as the ratio of the respective Ki value of β-catenin/E-cadherin interactions over that of β-catenin/BCL9 interactions.

pKi	Structure (SMILES)
< 4.05	CC(C)c1ccc(COC(=O)[C@@H]2CCCN(c3cccc(OC(C)(C)C(=O)O)c3)C2)cc1 [Compound 1, (R)-2-(3-(3-(((4-isopropylbenzyl)oxy)carbonyl)piperidin-1-yl)phenoxy)-2-methylpropanoic acid]

same assay, conditions: Table 9, inhibitors 93-98, racemic; read-out: Ki

pKi	Structure (SMILES)
≥ 4.05	CC(C)c1ccc(CNC(=O)C2CCCN(c3cccc(OC(C)(C)C(=O)O)c3)C2)cc1 (racemic) [Compound 93, 2-(3-(3-((4-isopropylbenzyl)carbamoyl)piperidin-1-yl)phenoxy)-2-methylpropanoic acid]
≥ 4.05	CC(C)c1ccc(CN(C)C(=O)C2CCCN(c3cccc(OC(C)(C)C(=O)O)c3)C2)cc1 (racemic) [Compound 95, 2-(3-(3-((4-isopropylbenzyl)(methyl)carbamoyl)piperidin-1-yl)phenoxy)-2-methylpropanoic acid]
≥ 4.05	CC(C)c1ccc(CN(C(=O)C2CCCN(c3cccc(OC(C)(C)C(=O)O)c3)C2)C(C)C)cc1 (racemic) [Compound 97, 2-(3-(3-(isopropyl(4-isopropylbenzyl)carbamoyl)piperidin-1-yl)phenoxy)-2-methylpropanoic acid]

same assay, conditions: Table 10, inhibitors 99-106, racemic; read-out: Ki ± SD

pKi	Structure (SMILES)
< 4.05	CC(C)(Oc1cccc(N2CCCC(C(=O)N(Cc3ccc(-c4cn[nH]c4)cc3)C3CC3)C2)c1)C(=O)O (racemic) [Compound 99, 2-(3-(3-((4-(1H-pyrazol-4-yl)benzyl)(cyclopropyl)carbamoyl)piperidin-1-yl)phenoxy)-2-methylpropanoic acid]
< 4.05	Cn1cc(-c2ccc(CN(C(=O)C3CCCN(c4cccc(OC(C)(C)C(=O)O)c4)C3)C3CC3)cc2)cn1 (racemic) [Compound 100, 2-(3-(3-(cyclopropyl(4-(1-methyl-1H-pyrazol-4-yl)benzyl)carbamoyl)piperidin-1-yl)phenoxy)-2-methylpropanoic acid]
≥ 4.05	CC(C)(Oc1cccc(N2CCCC(C(=O)N(Cc3ccc(-c4ccn[nH]4)cc3)C3CC3)C2)c1)C(=O)O (racemic) [Compound 101, 2-(3-(3-((4-(1H-pyrazol-5-yl)benzyl)(cyclopropyl)carbamoyl)piperidin-1-yl)phenoxy)-2-methylpropanoic acid]
< 4.05	Cn1nccc1-c1ccc(CN(C(=O)C2CCCN(c3cccc(OC(C)(C)C(=O)O)c3)C2)C2CC2)cc1 (racemic) [Compound 102, 2-(3-(3-(cyclopropyl(4-(1-methyl-1H-pyrazol-5-yl)benzyl)carbamoyl)piperidin-1-yl)phenoxy)-2-methylpropanoic acid]
≥ 4.52	CC(C)(Oc1cccc(N2CCCC(C(=O)N(Cc3ccc(-c4cccs4)cc3)C3CC3)C2)c1)C(=O)O (racemic) [Compound 103, 2-(3-(3-(cyclopropyl(4-(thiophen-2-yl)benzyl)carbamoyl)piperidin-1-yl)phenoxy)-2-methylpropanoic acid]
≥ 4.52	CC(C)(Oc1cccc(N2CCCC(C(=O)N(Cc3ccc(-c4ccsc4)cc3)C3CC3)C2)c1)C(=O)O (racemic) [Compound 104, 2-(3-(3-(cyclopropyl(4-(thiophen-3-yl)benzyl)carbamoyl)piperidin-1-yl)phenoxy)-2-methylpropanoic acid]
≥ 4.05	CC(C)(Oc1cccc(N2CCCC(C(=O)N(Cc3ccc(-c4ccco4)cc3)C3CC3)C2)c1)C(=O)O (racemic) [Compound 105, 2-(3-(3-(cyclopropyl(4-(furan-2-yl)benzyl)carbamoyl)piperidin-1-yl)phenoxy)-2-methylpropanoic acid]
< 4.05	CC(C)(Oc1cccc(N2CCCC(C(=O)N(Cc3ccc(-c4ccoc4)cc3)C3CC3)C2)c1)C(=O)O (racemic) [Compound 106, 2-(3-(3-(cyclopropyl(4-(furan-3-yl)benzyl)carbamoyl)piperidin-1-yl)phenoxy)-2-methylpropanoic acid]

same assay, conditions: Table 11, inhibitors 107-108, racemic; read-out: Ki ± SD

pKi	Structure (SMILES)
< 4.05	COC(=O)C(C)(C)Oc1cccc(N2CCCC(C(=O)N(Cc3ccc(-c4cccs4)cc3)C3CC3)C2)c1 (racemic) [Compound 107, methyl 2-(3-(3-(cyclopropyl(4-(thiophen-2-yl)benzyl)carbamoyl)piperidin-1-yl)phenoxy)-2-methylpropanoate]
